The record followed here is ChEMBL document CHEMBL5303573, “Mapping human microbiome drug metabolism by gut bacteria and their genes” (Nature, 2019).

Molecules are shown by their SMILES.

The first series in a line: The drug is tested on Clostridium sp. strain: fecal isolate for biotransformation. The drug concentrations were measured before and after a 12-h incubation by liquid-chromatography-coupled mass spectrometry (LC–MS). The following applies: 2 µM.
Consider `O=C1[C@H](CC[C@H](O)c2ccc(F)cc2)[C@@H](c2ccc(O)cc2)N1c1ccc(F)cc1` [EZETIMIBE], for which the “Bacterial Biotransformation” value was “Compound NOT metabolized”.
The same measure, in the same setting: the result for `COc1ccc([C@@H]2Sc3ccccc3N(CCN(C)C)C(=O)[C@@H]2OC(C)=O)cc1` [DILTIAZEM] reads “Compound metabolized”; that for `OC(Cn1cncn1)(Cn1cncn1)c1ccc(F)cc1F` [FLUCONAZOLE], “Compound metabolized”.

A short description of the next series: The drug is tested on Providencia rettgeri strain: DSM1131 for biotransformation. The drug concentrations were measured before and after a 12-h incubation by liquid-chromatography-coupled mass spectrometry (LC–MS). In kind it is ADME. The arrangement: dose 2 uM, timepoint 0 vs 12 hours. As to conditions: 2 µM.
Consider `O=C1[C@H](CC[C@H](O)c2ccc(F)cc2)[C@@H](c2ccc(O)cc2)N1c1ccc(F)cc1` [EZETIMIBE], for which the “Bacterial Biotransformation” value is “Compound NOT metabolized”.

The next series is described as follows: The drug is tested on Odoribacter splanchnicus strain: fecal isolate for biotransformation. The drug concentrations were measured before and after a 12-h incubation by liquid-chromatography-coupled mass spectrometry (LC–MS). The following applies: 2 µM.
Take `O=C1[C@H](CC[C@H](O)c2ccc(F)cc2)[C@@H](c2ccc(O)cc2)N1c1ccc(F)cc1` [EZETIMIBE]: the “Bacterial Biotransformation” value is “Compound NOT metabolized”.
Still for that read-out and setting: under `COc1ccc([C@@H]2Sc3ccccc3N(CCN(C)C)C(=O)[C@@H]2OC(C)=O)cc1` [DILTIAZEM] stands “Compound NOT metabolized”.
On the same count and under the same terms, under `OC(Cn1cncn1)(Cn1cncn1)c1ccc(F)cc1F` [FLUCONAZOLE] stands “Compound metabolized”.

For another series the following is noted: parabacteroides distasonis, 12 h, 2 µM.
Description: The drug is tested on Parabacteroides distasonis strain: ATCC8503 for biotransformation. The drug concentrations were measured before and after a 12-h incubation by liquid-chromatography-coupled mass spectrometry (LC–MS)
For `O=C1[C@H](CC[C@H](O)c2ccc(F)cc2)[C@@H](c2ccc(O)cc2)N1c1ccc(F)cc1` [EZETIMIBE], the “Bacterial Biotransformation” value is “Compound NOT metabolized”.
Turning to `COc1ccc([C@@H]2Sc3ccccc3N(CCN(C)C)C(=O)[C@@H]2OC(C)=O)cc1` [DILTIAZEM], the “Bacterial Biotransformation” value is given as “Compound metabolized”.
Turning to `OC(Cn1cncn1)(Cn1cncn1)c1ccc(F)cc1F` [FLUCONAZOLE], the “Bacterial Biotransformation” value was “Compound NOT metabolized”.

For a further series the following is noted: anaerostipes sp., 12 h, 2 µM.
Description: The drug is tested on Anaerostipes sp. strain: fecal isolate for biotransformation. The drug concentrations were measured before and after a 12-h incubation by liquid-chromatography-coupled mass spectrometry (LC–MS)
In the case of `O=C1[C@H](CC[C@H](O)c2ccc(F)cc2)[C@@H](c2ccc(O)cc2)N1c1ccc(F)cc1` [EZETIMIBE], the “Bacterial Biotransformation” value was “Compound NOT metabolized”.
Turning to `COc1ccc([C@@H]2Sc3ccccc3N(CCN(C)C)C(=O)[C@@H]2OC(C)=O)cc1` [DILTIAZEM], the “Bacterial Biotransformation” value was “Compound metabolized”.
On the same count and under the same terms, the result for `OC(Cn1cncn1)(Cn1cncn1)c1ccc(F)cc1F` [FLUCONAZOLE] reads “Compound NOT metabolized”.

Another series in a line: The drug is tested on Ruminococcus lactaris strain: ATCC29176 for biotransformation. The drug concentrations were measured before and after a 12-h incubation by liquid-chromatography-coupled mass spectrometry (LC–MS). The following applies: 2 µM.
With `O=C1[C@H](CC[C@H](O)c2ccc(F)cc2)[C@@H](c2ccc(O)cc2)N1c1ccc(F)cc1` [EZETIMIBE], the “Bacterial Biotransformation” value was “Compound NOT metabolized”.
Same read-out and setting: under `COc1ccc([C@@H]2Sc3ccccc3N(CCN(C)C)C(=O)[C@@H]2OC(C)=O)cc1` [DILTIAZEM] stands “Compound metabolized”; under `OC(Cn1cncn1)(Cn1cncn1)c1ccc(F)cc1F` [FLUCONAZOLE], “Compound NOT metabolized”.

The nature of a further series: The drug is tested on Enterococcus faecalis strain: V583 for biotransformation. The drug concentrations were measured before and after a 12-h incubation by liquid-chromatography-coupled mass spectrometry (LC–MS). As to conditions: 2 µM.
As to `O=C1[C@H](CC[C@H](O)c2ccc(F)cc2)[C@@H](c2ccc(O)cc2)N1c1ccc(F)cc1` [EZETIMIBE], the “Bacterial Biotransformation” value is recorded as “Compound NOT metabolized”.
For the molecule `COc1ccc([C@@H]2Sc3ccccc3N(CCN(C)C)C(=O)[C@@H]2OC(C)=O)cc1` [DILTIAZEM], the “Bacterial Biotransformation” value is on record as “Compound NOT metabolized”.
Same read-out and setting: the result for `OC(Cn1cncn1)(Cn1cncn1)c1ccc(F)cc1F` [FLUCONAZOLE] reads “Compound NOT metabolized”.

Another series is described as follows: The drug is tested on Bacteroides caccae strain: ATCC43185 for biotransformation. The drug concentrations were measured before and after a 12-h incubation by liquid-chromatography-coupled mass spectrometry (LC–MS). The following applies: 2 µM.
`COc1ccc([C@@H]2Sc3ccccc3N(CCN(C)C)C(=O)[C@@H]2OC(C)=O)cc1` [DILTIAZEM]: the “Bacterial Biotransformation” value was “Compound metabolized”.
Still for that read-out and setting: the result for `OC(Cn1cncn1)(Cn1cncn1)c1ccc(F)cc1F` [FLUCONAZOLE] reads “Compound NOT metabolized”.

Another series is described as follows: The drug is tested on Blautia hansenii strain: DSM20583 for biotransformation. The drug concentrations were measured before and after a 12-h incubation by liquid-chromatography-coupled mass spectrometry (LC–MS). The following applies: 2 µM.
In the case of `O=C1[C@H](CC[C@H](O)c2ccc(F)cc2)[C@@H](c2ccc(O)cc2)N1c1ccc(F)cc1` [EZETIMIBE], the “Bacterial Biotransformation” value is “Compound NOT metabolized”.
Same read-out and setting: the result for `COc1ccc([C@@H]2Sc3ccccc3N(CCN(C)C)C(=O)[C@@H]2OC(C)=O)cc1` [DILTIAZEM] reads “Compound metabolized”; that for `OC(Cn1cncn1)(Cn1cncn1)c1ccc(F)cc1F` [FLUCONAZOLE], “Compound metabolized”.

A further series in a line: The drug is tested on Escherichia coli strain: BW25113 for biotransformation. The drug concentrations were measured before and after a 12-h incubation by liquid-chromatography-coupled mass spectrometry (LC–MS). As to conditions: 2 µM.
In the case of `O=C1[C@H](CC[C@H](O)c2ccc(F)cc2)[C@@H](c2ccc(O)cc2)N1c1ccc(F)cc1` [EZETIMIBE], the “Bacterial Biotransformation” value is reported as “Compound NOT metabolized”.
For the molecule `COc1ccc([C@@H]2Sc3ccccc3N(CCN(C)C)C(=O)[C@@H]2OC(C)=O)cc1` [DILTIAZEM], the “Bacterial Biotransformation” value is “Compound NOT metabolized”.
For the molecule `OC(Cn1cncn1)(Cn1cncn1)c1ccc(F)cc1F` [FLUCONAZOLE], the “Bacterial Biotransformation” value is reported as “Compound NOT metabolized”.

For another series the following is noted: segatella copri, 12 h, 2 µM.
Description: The drug is tested on Prevotella copri strain: DSM18205 for biotransformation. The drug concentrations were measured before and after a 12-h incubation by liquid-chromatography-coupled mass spectrometry (LC–MS)
For `O=C1[C@H](CC[C@H](O)c2ccc(F)cc2)[C@@H](c2ccc(O)cc2)N1c1ccc(F)cc1` [EZETIMIBE], the “Bacterial Biotransformation” value is “Compound NOT metabolized”.
On the same count and under the same terms, under `COc1ccc([C@@H]2Sc3ccccc3N(CCN(C)C)C(=O)[C@@H]2OC(C)=O)cc1` [DILTIAZEM] stands “Compound NOT metabolized”; under `OC(Cn1cncn1)(Cn1cncn1)c1ccc(F)cc1F` [FLUCONAZOLE], “Compound NOT metabolized”.

The conditions of the next series: parabacteroides johnsonii, 12 h, 2 µM.
Description: The drug is tested on Parabacteroides johnsonii strain: DSM18315 for biotransformation. The drug concentrations were measured before and after a 12-h incubation by liquid-chromatography-coupled mass spectrometry (LC–MS)
For `O=C1[C@H](CC[C@H](O)c2ccc(F)cc2)[C@@H](c2ccc(O)cc2)N1c1ccc(F)cc1` [EZETIMIBE], the “Bacterial Biotransformation” value was “Compound NOT metabolized”.
As to `COc1ccc([C@@H]2Sc3ccccc3N(CCN(C)C)C(=O)[C@@H]2OC(C)=O)cc1` [DILTIAZEM], the “Bacterial Biotransformation” value was “Compound metabolized”.
For the molecule `OC(Cn1cncn1)(Cn1cncn1)c1ccc(F)cc1F` [FLUCONAZOLE], the “Bacterial Biotransformation” value was “Compound metabolized”.

The nature of a further series: The drug is tested on Bifidobacterium breve strain: DSM20213 for biotransformation. The drug concentrations were measured before and after a 12-h incubation by liquid-chromatography-coupled mass spectrometry (LC–MS). The following applies: 2 µM.
Consider `O=C1[C@H](CC[C@H](O)c2ccc(F)cc2)[C@@H](c2ccc(O)cc2)N1c1ccc(F)cc1` [EZETIMIBE], for which the “Bacterial Biotransformation” value is recorded as “Compound NOT metabolized”.
On the same count and under the same terms, under `COc1ccc([C@@H]2Sc3ccccc3N(CCN(C)C)C(=O)[C@@H]2OC(C)=O)cc1` [DILTIAZEM] stands “Compound NOT metabolized”; under `OC(Cn1cncn1)(Cn1cncn1)c1ccc(F)cc1F` [FLUCONAZOLE], “Compound NOT metabolized”.

Another series can be described thus: The drug is tested on Clostridium sporogenes strain: ATCC15579 for biotransformation. The drug concentrations were measured before and after a 12-h incubation by liquid-chromatography-coupled mass spectrometry (LC–MS). As to conditions: 2 µM.
On to `O=C1[C@H](CC[C@H](O)c2ccc(F)cc2)[C@@H](c2ccc(O)cc2)N1c1ccc(F)cc1` [EZETIMIBE], for which the “Bacterial Biotransformation” value is listed as “Compound metabolized”.
The same measure, in the same setting: the result for `COc1ccc([C@@H]2Sc3ccccc3N(CCN(C)C)C(=O)[C@@H]2OC(C)=O)cc1` [DILTIAZEM] reads “Compound NOT metabolized”; that for `OC(Cn1cncn1)(Cn1cncn1)c1ccc(F)cc1F` [FLUCONAZOLE], “Compound metabolized”.

For a further series the following is noted: bifidobacterium adolescentis, 12 h, 2 µM.
Description: The drug is tested on Bifidobacterium adolescentis strain: ATCC 15703 for biotransformation. The drug concentrations were measured before and after a 12-h incubation by liquid-chromatography-coupled mass spectrometry (LC–MS)
For `COc1ccc([C@@H]2Sc3ccccc3N(CCN(C)C)C(=O)[C@@H]2OC(C)=O)cc1` [DILTIAZEM], the “Bacterial Biotransformation” value is on record as “Compound NOT metabolized”.
On the same count and under the same terms, the result for `OC(Cn1cncn1)(Cn1cncn1)c1ccc(F)cc1F` [FLUCONAZOLE] reads “Compound NOT metabolized”.

A further series can be described thus: The drug is tested on Bacteroides cellulosilyticus strain: DSM14838 for biotransformation. The drug concentrations were measured before and after a 12-h incubation by liquid-chromatography-coupled mass spectrometry (LC–MS). As to conditions: 2 µM.
For the molecule `O=C1[C@H](CC[C@H](O)c2ccc(F)cc2)[C@@H](c2ccc(O)cc2)N1c1ccc(F)cc1` [EZETIMIBE], the “Bacterial Biotransformation” value is “Compound NOT metabolized”.
The same measure, in the same setting: under `COc1ccc([C@@H]2Sc3ccccc3N(CCN(C)C)C(=O)[C@@H]2OC(C)=O)cc1` [DILTIAZEM] stands “Compound metabolized”.
On the same count and under the same terms, the result for `OC(Cn1cncn1)(Cn1cncn1)c1ccc(F)cc1F` [FLUCONAZOLE] reads “Compound NOT metabolized”.

For a further series the following is noted: bacteroides fragilis, 12 h, 2 µM.
Description: The drug is tested on Bacteroides fragilis strain: 3397 (T10) for biotransformation. The drug concentrations were measured before and after a 12-h incubation by liquid-chromatography-coupled mass spectrometry (LC–MS)
On to `O=C1[C@H](CC[C@H](O)c2ccc(F)cc2)[C@@H](c2ccc(O)cc2)N1c1ccc(F)cc1` [EZETIMIBE], for which the “Bacterial Biotransformation” value is listed as “Compound NOT metabolized”.
Same read-out and setting: under `OC(Cn1cncn1)(Cn1cncn1)c1ccc(F)cc1F` [FLUCONAZOLE] stands “Compound metabolized”.

Another series can be described thus: The drug is tested on Clostridium scindens strain: ATCC35704 for biotransformation. The drug concentrations were measured before and after a 12-h incubation by liquid-chromatography-coupled mass spectrometry (LC–MS). As to conditions: 2 µM.
In the case of `O=C1[C@H](CC[C@H](O)c2ccc(F)cc2)[C@@H](c2ccc(O)cc2)N1c1ccc(F)cc1` [EZETIMIBE], the “Bacterial Biotransformation” value is “Compound NOT metabolized”.
On the same count and under the same terms, under `COc1ccc([C@@H]2Sc3ccccc3N(CCN(C)C)C(=O)[C@@H]2OC(C)=O)cc1` [DILTIAZEM] stands “Compound NOT metabolized”; under `OC(Cn1cncn1)(Cn1cncn1)c1ccc(F)cc1F` [FLUCONAZOLE], “Compound metabolized”.

A further series can be described thus: The drug is tested on Bacteroides vulgatus strain: ATCC8482 for biotransformation. The drug concentrations were measured before and after a 12-h incubation by liquid-chromatography-coupled mass spectrometry (LC–MS). The following applies: phocaeicola vulgatus, 2 µM.
Turning to `COc1ccc([C@@H]2Sc3ccccc3N(CCN(C)C)C(=O)[C@@H]2OC(C)=O)cc1` [DILTIAZEM], the “Bacterial Biotransformation” value is “Compound metabolized”.

For the next series the following is noted: bacteroides thetaiotaomicron, 12 h, 2 µM.
Description: The drug is tested on Bacteroides thetaiotaomicron strain: VPI-5482 for biotransformation. The drug concentrations were measured before and after a 12-h incubation by liquid-chromatography-coupled mass spectrometry (LC–MS)
As to `O=C1[C@H](CC[C@H](O)c2ccc(F)cc2)[C@@H](c2ccc(O)cc2)N1c1ccc(F)cc1` [EZETIMIBE], the “Bacterial Biotransformation” value was “Compound NOT metabolized”.
Same read-out and setting: under `COc1ccc([C@@H]2Sc3ccccc3N(CCN(C)C)C(=O)[C@@H]2OC(C)=O)cc1` [DILTIAZEM] stands “Compound metabolized”.
The same measure, in the same setting: under `OC(Cn1cncn1)(Cn1cncn1)c1ccc(F)cc1F` [FLUCONAZOLE] stands “Compound metabolized”.
